{
  "source": "patent US20110008802A1",
  "about": "“TNFalpha GENE EXPRESSION AS A BIOMARKER OF SENSITIVITY TO ANTAGONISTS OF INHIBITOR OF APOPTOSIS PROTEINS” (TETRALOGIC PHARMACEUTICALS CORP., priority 2007, published 2011)",
  "key": {"SKOV3 cells": {"test_system": "SKOV3 cells", "experiment": "MTT assay of compound C with or without TNFα blocking antibody, SKOV3 cells", "assay_type": "cell-based, human", "conditions": "compound C+anti-TNFα antibody (MAB610) vs compound C alone, 72 hrs", "description": "(§1) We have previously observed that our compounds promote rapid cIAP-1 degradation. Therefore, we hypothesized that degradation of cIAP-1 may result in autocrine activation of the death-receptor pathway by TNFα. To test this, we used TNFα blocking antibody in an MTT assay. Briefly, indicated ovarian cancer cell lines were seeded into 96-well cell culture plates at a density of 5,000 cells per well. The next day, anti-TNFα antibody (MAB610, R&D Systems, Minneapolis, Minn.) was added to cells at a final concentration of 10 µg/mL and allowed to incubate for 1 hr at 37° C., 5% CO2. Following incubation, a range of concentrations of the cIAP antagonist compound C was added to cells. Cells were incubated in the presence of compound C+anti-TNFα antibody or in the presence of compound C alone as a control for an additional 72 hrs. Following 72 hr incubation, MTT reagent (3-(4,5-dimethylthiazolyl-2)-2,5-diphenyltetrazolium bromide; SIGMA, St. Louis, Mo.) was added to all wells at a final concentration of 1 mg/mL and allowed to incubate for 2 hrs at 37° C., 5% CO2. Following a 2 hr incubation, all media was removed from wells and […] DMSO was added to solubilize formazan crystals. After a brief incubation at room temp on a microplate shaker, absorbance was measured at 570 nm using a Victor^2V fluorescent microplate reader (Perkin-Elmer, Turku, Finland). […]"}, "OVCAR-8 cells": {"test_system": "OVCAR-8 cells", "experiment": "MTT assay of compound C with or without TNFα blocking antibody, OVCAR-8 cells", "assay_type": "cell-based, human", "conditions": "compound C+anti-TNFα antibody (MAB610) vs compound C alone, 72 hrs", "description": "as §1"}},
  "data": [
    {"smiles": "CN[C@@H](C)C(=O)N[C@H](C(=O)N1C[C@@H](O)C[C@H]1CC1=C(C2=C(C[C@@H]3C[C@H](O)CN3C(=O)[C@@H](NC(=O)[C@H](C)NC)[C@@H](C)OC)c3ccc(F)cc3C2)Cc2cc(F)ccc21)[C@@H](C)OC", "note": "[compound C]", "values": [
      {"measurement": "effect of anti-TNFα antibody on cIAP antagonist induced cytotoxicity (CC50 curve, FIG. 2)", "setting": "SKOV3 cells", "result": "abrogates cIAP antagonist induced cytotoxicity"},
      {"measurement": "effect of anti-TNFα antibody on cIAP antagonist induced cytotoxicity (CC50 curve, FIG. 1)", "setting": "OVCAR-8 cells", "result": "abrogates cIAP antagonist induced cytotoxicity"}
    ]}
  ]
}
